Results taken from patent US20100267561A1, “HERBICIDAL PYRIDAZINONE DERIVATIVES” (priority 2007, published 2010).
Like-named read-outs stand apart in the source and are kept apart here.

Key:
Assay in all cases: Test B pre-/postemergence plant response
Format in all cases: in vivo
[1] = tested on: downy bromegrass (Bromus tectorum); settings: for pest or weed control at 31 g/ha: 31 g ai/ha; for pest or weed control at 62 g/ha: 62 g ai/ha, 100 complete control
How it was run: (§1)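 Visual scoring from 0 (no effect) to 100 (complete control) against untreated controls was done 13 to 15 days after greenhouse treatment. Chemicals were formulated in a surfactant-containing non-phytotoxic solvent and applied to soil preemergence or to 1- to 4-leaf (2-18 cm) plants postemergence.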

corn (Zea mays) = settings: for Corn plant response rating (crop injury, 0 = no effect, 100 = complete kill) at 31 g/ha: 31 g ai/ha; for Corn plant response rating (crop injury, 0 = no effect, 100 = complete kill) at 62 g/ha: 62 g ai/ha, 100 complete control
How it was run: as §1

[2] = tested on: eastern black (E.B.) nightshade (Solanum ptycanthum); settings: Preemergence
How it was run: as §1

[3] = tested on: woolly cupgrass (Eriochloa villosa); settings: for pest or weed control at 31 g/ha: 31 g ai/ha; for pest or weed control at 62 g/ha: 62 g ai/ha, 100 complete control
How it was run: as §1

wild oat (Avena fatua) = settings: for pest or weed control at 31 g/ha / pest or weed control at 62 g/ha: Avena fatua, read-out: Plant response rating, Oat, Wild; for pest or weed control at 31 g/ha: 31 g ai/ha; for pest or weed control at 62 g/ha: 62 g ai/ha, 100 complete control
How it was run: as §1

[4] = tested on: Russian thistle (Salsola iberica); settings: Preemergence
How it was run: as §1

[5] = tested on: giant foxtail (Setaria faberii); settings: for pest or weed control at 31 g/ha: 31 g ai/ha; for pest or weed control at 62 g/ha: 62 g ai/ha, 100 complete control
How it was run: as §1

[6] = tested on: green foxtail (Setaria viridis); settings: for pest or weed control at 31 g/ha: 31 g ai/ha; for pest or weed control at 62 g/ha: 62 g ai/ha, 100 complete control
How it was run: as §1

[7] = tested on: pigweed (Amaranthus retroflexus); settings: for pest or weed control at 31 g/ha / pest or weed control at 62 g/ha: Amaranthus retroflexus, read-out: Plant response rating, Pigweed; for pest or weed control at 31 g/ha: 31 g ai/ha; for pest or weed control at 62 g/ha: 62 g ai/ha, 100 complete control
How it was run: as §1

[8] = tested on: large crabgrass (Digitaria sanguinalis); settings: for pest or weed control at 31 g/ha: 31 g ai/ha; for pest or weed control at 62 g/ha: 62 g ai/ha, 100 complete control
How it was run: as §1

[9] = 8 g ai/ha, postemergence, 0-100 scale
[10] = Preemergence, 8 g ai/ha, scale 0 to 100 (0 no effect, 100 complete control)
[11] = Preemergence, 16 g ai/ha, scale 0 to 100
[12] = 8 g ai/ha, scale 0 to 100 (0 no effect, 100 complete control)
[13] = 16 g ai/ha, postemergence, 0-100 scale
[14] = post-emergence, Postemergence, scale 0 to 100
[15] = post-emergence, Postemergence, scale 0 to 100, 0 no effect
[16] = pre-emergence, Preemergence, scale 0 to 100 (0 no effect, 100 complete control)
[17] = pre-emergence, Preemergence, 0 to 100 scale, 0 no effect

Cc1cc(-c2ccc(Br)cc2)nn1-c1c(O)cn[nH]c1=O [Compound 78, 4-[3-(4-bromophenyl)-5-methyl-1H-pyrazol-1-yl]-5-hydroxy-3(2H)-pyridazinone]
80%: pest or weed control at 31 g/ha ([1]; Bromus tectorum, pre-emergence, Preemergence, scale 0 to 100 (0 no effect, 100 complete control), read-out: Plant response rating, Bromegrass, Downy) | pest or weed control at 31 g/ha ([6]; Setaria viridis, post-emergence, Postemergence, scale 0 to 100, read-out: Plant response rating, Foxtail, Green)
40: Bromegrass, Downy plant response rating [1, 10] | Corn plant response rating (corn (Zea mays); [9]) | Oat, Wild plant response rating (wild oat (Avena fatua); [11]) | Foxtail, Green plant response rating [6, 9]
0%: pest or weed control at 31 g/ha ([2]; Solanum, pre-emergence, 31 g ai/ha, scale 0 to 100 (0 no effect, 100 complete control), read-out: Plant response rating, Nightshade, E. B.) | pest or weed control at 31 g/ha [7, 14] | pest or weed control at 62 g/ha [7, 15] | pest or weed control at 31 g/ha [7, 16] | pest or weed control at 62 g/ha [7, 17]
95: Crabgrass, Large plant response rating [8, 11]
65: Cupgrass, Woolly plant response rating [3, 10]
70%: pest or weed control at 31 g/ha (wild oat (Avena fatua); [16])
95%: pest or weed control at 31 g/ha ([1]; Bromus tectorum, post-emergence, Postemergence, scale 0 to 100, read-out: Plant response rating, Bromegrass, Downy)
0: Nightshade, E. B. plant response rating [2, 12] | Nightshade, E. B. plant response rating ([2]; 16 g ai/ha, scale 0 to 100) | Russian Thistle plant response rating [4, 12] | Plant response rating, Russian Thistle ([4]; 31 g ai/ha, scale 0 to 100 (0 no effect, 100 complete control)) | Plant response rating, Russian Thistle ([4]; 62 g ai/ha, 0 to 100 scale, 0 no effect, 100 complete control) | Russian Thistle plant response rating ([4]; 16 g ai/ha, scale 0 to 100) | Pigweed plant response rating [7, 9] | Pigweed plant response rating [7, 13] | Pigweed plant response rating [7, 10] | Pigweed plant response rating [7, 11]
60%: pest or weed control at 16 g/ha ([6]; Setaria viridis, post-emergence, Postemergence, 16 g ai/ha, scale 0 to 100, read-out: Plant response rating, Foxtail, Green)
100%: pest or weed control at 62 g/ha ([1]; Bromus tectorum, post-emergence, Postemergence, scale 0 to 100, 0 no effect, read-out: Plant response rating, Bromegrass, Downy) | Corn plant response rating (crop injury, 0 = no effect, 100 = complete kill) at 16 g/ha (corn (Zea mays); Zea mays, post-emergence, Postemergence, 16 g ai/ha, scale 0 to 100) | Corn plant response rating (crop injury, 0 = no effect, 100 = complete kill) at 31 g/ha (corn (Zea mays); Zea mays, post-emergence, Postemergence, scale 0 to 100) | Corn plant response rating (crop injury, 0 = no effect, 100 = complete kill) at 62 g/ha (corn (Zea mays); Zea mays, post-emergence, Postemergence, scale 0 to 100, 0 no effect) | Corn plant response rating (crop injury, 0 = no effect, 100 = complete kill) at 31 g/ha (corn (Zea mays); Zea mays, pre-emergence, Preemergence, scale 0 to 100 (0 no effect, 100 complete control)) | Corn plant response rating (crop injury, 0 = no effect, 100 = complete kill) at 62 g/ha (corn (Zea mays); Zea mays, pre-emergence, Preemergence, 0 to 100 scale, 0 no effect) | pest or weed control at 16 g/ha ([3]; Eriochloa villosa, post-emergence, Postemergence, 16 g ai/ha, scale 0 to 100, read-out: Plant response rating, Cupgrass, Woolly) | pest or weed control at 31 g/ha ([3]; Eriochloa villosa, post-emergence, Postemergence, scale 0 to 100, read-out: Plant response rating, Cupgrass, Woolly) | pest or weed control at 62 g/ha ([3]; Eriochloa villosa, post-emergence, Postemergence, scale 0 to 100, 0 no effect, read-out: Plant response rating, Cupgrass, Woolly) | pest or weed control at 31 g/ha ([3]; Eriochloa villosa, pre-emergence, Preemergence, scale 0 to 100 (0 no effect, 100 complete control), read-out: Plant response rating, Cupgrass, Woolly) | pest or weed control at 62 g/ha ([3]; Eriochloa villosa, pre-emergence, Preemergence, 0 to 100 scale, 0 no effect, read-out: Plant response rating, Cupgrass, Woolly) | pest or weed control at 31 g/ha (wild oat (Avena fatua); [14]) | pest or weed control at 62 g/ha (wild oat (Avena fatua); [15]) | pest or weed control at 16 g/ha ([5]; Setaria faberi, post-emergence, Postemergence, 16 g ai/ha, scale 0 to 100, read-out: Plant response rating, Foxtail, Giant) | pest or weed control at 31 g/ha ([5]; Setaria faberi, post-emergence, Postemergence, scale 0 to 100, read-out: Plant response rating, Foxtail, Giant) | pest or weed control at 62 g/ha ([5]; Setaria faberi, post-emergence, Postemergence, scale 0 to 100, 0 no effect, read-out: Plant response rating, Foxtail, Giant) | pest or weed control at 31 g/ha ([5]; Setaria faberi, pre-emergence, Preemergence, scale 0 to 100 (0 no effect, 100 complete control), read-out: Plant response rating, Foxtail, Giant) | pest or weed control at 62 g/ha ([5]; Setaria faberi, pre-emergence, Preemergence, 0 to 100 scale, 0 no effect, read-out: Plant response rating, Foxtail, Giant) | pest or weed control at 62 g/ha ([6]; Setaria viridis, post-emergence, Postemergence, scale 0 to 100, 0 no effect, read-out: Plant response rating, Foxtail, Green) | pest or weed control at 31 g/ha ([6]; Setaria viridis, pre-emergence, Preemergence, scale 0 to 100 (0 no effect, 100 complete control), read-out: Plant response rating, Foxtail, Green) | pest or weed control at 62 g/ha ([6]; Setaria viridis, pre-emergence, Preemergence, 0 to 100 scale, 0 no effect, read-out: Plant response rating, Foxtail, Green) | pest or weed control at 16 g/ha ([8]; Digitaria sanguinalis, post-emergence, Postemergence, 16 g ai/ha, scale 0 to 100, read-out: Plant response rating, Crabgrass, Large) | pest or weed control at 31 g/ha ([8]; Digitaria sanguinalis, post-emergence, Postemergence, scale 0 to 100, read-out: Plant response rating, Crabgrass, Large) | pest or weed control at 62 g/ha ([8]; Digitaria sanguinalis, post-emergence, Postemergence, scale 0 to 100, 0 no effect, read-out: Plant response rating, Crabgrass, Large) | pest or weed control at 31 g/ha ([8]; Digitaria sanguinalis, pre-emergence, Preemergence, scale 0 to 100 (0 no effect, 100 complete control), read-out: Plant response rating, Crabgrass, Large) | pest or weed control at 62 g/ha ([8]; Digitaria sanguinalis, pre-emergence, Preemergence, 0 to 100 scale, 0 no effect, read-out: Plant response rating, Crabgrass, Large)
60: Bromegrass, Downy plant response rating [1, 11]
15: Crabgrass, Large plant response rating [8, 10]
55: Bromegrass, Downy plant response rating [1, 9] | Corn plant response rating (corn (Zea mays); [10])
98: Cupgrass, Woolly plant response rating [3, 9] | Cupgrass, Woolly plant response rating [3, 11] | Oat, Wild plant response rating (wild oat (Avena fatua); [9]) | Foxtail, Giant plant response rating [5, 9] | Foxtail, Giant plant response rating [5, 10] | Crabgrass, Large plant response rating [8, 9]
85: Corn plant response rating (corn (Zea mays); [11])
30: Oat, Wild plant response rating (wild oat (Avena fatua); [10])
98%: pest or weed control at 62 g/ha ([1]; Bromus tectorum, pre-emergence, Preemergence, 0 to 100 scale, 0 no effect, read-out: Plant response rating, Bromegrass, Downy)
85%: pest or weed control at 16 g/ha ([1]; Bromus tectorum, post-emergence, Postemergence, 16 g ai/ha, scale 0 to 100, read-out: Plant response rating, Bromegrass, Downy) | pest or weed control at 62 g/ha (wild oat (Avena fatua); [17])
100: Oat, Wild plant response rating (wild oat (Avena fatua); [13]) | Foxtail, Giant plant response rating [5, 11] | Foxtail, Green plant response rating [6, 10] | Foxtail, Green plant response rating [6, 11]
55%: pest or weed control at 62 g/ha ([2]; Solanum, pre-emergence, 62 g ai/ha, 0 to 100 scale, 0 no effect, 100 complete control, read-out: Plant response rating, Nightshade, E. B.)
